Experiments:
guinea pig ileum [1] = assay: Spontaneous motility (twitches) of guinea pig ileum strips; settings: reference toxins 10 nM; mokatoxin-1 1-100 nM
guinea pig ileum [2] = settings: J Pharmacol Exp Ther. 1999; cited from earlier work
guinea pig ileum [3] = assay: Intraluminal pressure measurement of peristaltic activity of guinea pig ileum; settings: MgTX 10 nM; mokatoxin-1 1-100 nM
Kv1.3 [4] = target: T1, Kv1.3 (Homo sapiens, UniProt P22001); assay: Whole-cell patch-clamp of Kv1.3 currents in HEK293 cells, toxin-phage applied; format: cell-based; parameters: expressed in transfected cells; host or cells: HEK (HEK293) and COS cells; settings: 0.1 nM toxin-displaying phage
Method: […] […] Plasmids were transfected into cells with Lipofectamine 2000 (Invitrogen) according to the manufacturer's instructions. Experiments were performed at 24 hr. Whole-cell patch-clamp was performed using an Axopatch 200B amplifier and pCLAMP software (Molecular Devices, Union City, Calif.) at filter and sampling frequencies of 5 and 25 kHz respectively. Kv1.3 currents were evoked by 250 ms test pulses to 50 mV from −80 mV with a 5 second interpulse interval and studied in a bath solution comprising in mM: 1.3 CaCl2, 0.5 MgCl2, 0.4 MgSO4, 3.56 KCl, 0.44 KH2PO4, 139.7 NaCl, 0.34 Na2HPO4, 5.5 glucose, 10 HEPES adjusted to pH 7.4 with NaOH. […] Electrodes were coated with Sigmacote (Sigma) prior to use.
Electrophysiological recordings were performed with mokatoxin—0422 to confirm blocking of Kv1.3 channels. […] Plasmids were transfected into cells with Lipofectamine 2000 (Invitrogen) according to the manufacturer's instructions. Experiments were performed at 24 hrs. Whole-cell patch-clamp was performed using an Axopatch 200B amplifier and pCLAMP software (Molecular Devices, Union City, Calif.) at filter and sampling frequencies of 5 and 25 kHz respectively. […]

vector transfected cells = assay: Phage panning on vector transfected cells (CONTROL); format: binding, human; settings: one round of panning; calculated input 5:95%
Method: Following incubation of the cells with the phages, cells were subjected to wash to remove the unbound/weakly bound phages. The remaining bound phages were eluted from the cells and transformed into XL1 E. coli, and plated onto LB plates with antibiotic selecting for the phagemids. The following day, 19-20 colonies of transformed XL1 were randomly selected and genotyped to establish the relative ratio (i.e., its departure from the calculated initial input of 5:95%) of the two different phage species, before and after the panning.

Kv1.3 [5] = target: T1, Kv1.3; assay: Phage panning on live cells (HEK, COS) expressing Kv1.3 channels; format: binding; parameters: expressed in transfected cells; host or cells: HEK (HEK293) and COS cells
Description: In another example, receptors may be expressed in cells. For example, cells may be stably or transiently transfected with one or more receptors can be utilized as expressed in native tissues (Clackson and Lowman, Phage display. Oxford University Press, 2004; Barbas et al., Phage display. A laboratory manual. Cold Spring Harbor Laboratory Press, 2001; Sambrook et al., Molecular Cloning: A Laboratory Manual. Vols 1-3. Cold Spring Harbor Laboratory Press, 1989). In one example, HEK (mammalian human embryonic kidney) and COS cells expressing wild-type Kv1.3 or Kv1.3-PDZ domain chimera were employed, the latter target allowing a “double” panning (e.g., as a control or to enhance binding affinity) using phages expressing kaliotoxin-1 and/or PDZ-binder domain.
Panning may be performed by the binding of ligands to the receptors, followed by washes and ligand recovery. In one example, panning is performed according to standard methods of phage display (Clackson and Lowman, Phage display. Oxford University Press, 2004; Barbas et al., Phage display. A laboratory manual. Cold Spring Harbor Laboratory Press, 2001). Panning may be repeated until the desired enrichment is achieved. In addition, libraries can be pre-depleted on surfaces or cells that contain no receptors or on a receptor where the putative ligand receptor domain may be directly or indirectly altered. Additionally, any and all conditions of panning may be varied, altered or changed to achieve optimal results, such as the isolation of a specific ligand. Panning variations include, but are not limited to, the presence of competing ligand(s), presence of excess target(s), length and temperature of binding, pre-absorption of the ligand library on one or more different receptor(s) or cells or surfaces, composition of binding solution (e.g., ionic strength), stringency of washing, and recovery procedures. Phages recovered from panning may be processed for further rounds of panning, functional analysis, and/or sequencing/genotyping to deduce the resulting ligands' amino acid sequence or biological properties (Clackson and Lowman, Phage display. Oxford University Press, 2004; Barbas et al., Phage display. A laboratory manual. Cold Spring Harbor Laboratory Press, 2001).
5×10^11 phagemids were added to the cell cultures in “B.”
A library of KTX-like ligands, with a calculated diversity of greater than 11,000, was created de novo. The library comprised approximately 8% KTX-like ligands and 92% non-KTX-like ligands. The library of ligands was screened on Kv1.3 receptors expressed in HEK and COS cells.
Transfection efficiency was monitored with cotransfection of gene encoding for the green fluorescence protein (GFP) and observing the fluorescence after 1-2 days following transfection.
KTX and mokatoxin-1 are Kv1.3 specific scorpion toxins. […] Following incubation of the cells with the phages, cells were subjected to wash to remove the unbound/weakly bound phages. The remaining bound phages were eluted from the cells and transformed into XL1 E. coli, and plated onto LB plates with antibiotic selecting for the phagemids.

[6] = one round of panning, calculated input 5:95%

T1 sequence (P22001 whole entry): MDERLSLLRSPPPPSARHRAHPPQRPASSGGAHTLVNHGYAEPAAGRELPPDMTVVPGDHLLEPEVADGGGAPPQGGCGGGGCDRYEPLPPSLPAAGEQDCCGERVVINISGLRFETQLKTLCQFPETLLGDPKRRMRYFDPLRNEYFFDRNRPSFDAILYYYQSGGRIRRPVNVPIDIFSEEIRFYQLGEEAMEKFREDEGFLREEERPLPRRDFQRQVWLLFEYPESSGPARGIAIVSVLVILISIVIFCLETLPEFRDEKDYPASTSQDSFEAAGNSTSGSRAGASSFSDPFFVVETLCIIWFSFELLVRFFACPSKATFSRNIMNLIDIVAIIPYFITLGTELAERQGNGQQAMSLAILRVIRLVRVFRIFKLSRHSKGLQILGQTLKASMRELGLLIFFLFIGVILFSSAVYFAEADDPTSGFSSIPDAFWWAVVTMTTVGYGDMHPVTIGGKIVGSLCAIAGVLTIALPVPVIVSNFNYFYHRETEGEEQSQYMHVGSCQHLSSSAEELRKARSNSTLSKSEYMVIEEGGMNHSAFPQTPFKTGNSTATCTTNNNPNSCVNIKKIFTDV
Method for Human CD3+ T cells: 10^5 freshly isolated CD3′ T cells were activated using CD3/CD28 dynabeads (Dynal, USA) at a T cell:bead ratio of 1:1 in 200 ul of medium in 96 wells plate. Channel blockers diluted at different concentrations in PBS were added to the cells 1 h prior to stimulation (done in triplicate).
Human CD3′ T cells were stimulated with CD3/CD28 beads following incubation with different concentrations (from 0.1 to 100 nM) of MK and KTX. The activity of MK was compared to the activity of KTX that was previously described to block the channels (Beeton et al, JI 2001).

CC[C@H](C)[C@H](N)C(=O)N[C@@H](CC(N)=O)C(=O)N[C@H](C(=O)N[C@@H](CCCCN)C(=O)N[C@H]1CSSC[C@@H]2NC(=O)[C@H](CCCCN)NC(=O)CNC(=O)[C@H](Cc3ccccc3)NC(=O)[C@H](CCCNC(=N)N)NC(=O)[C@H](CCSC)NC(=O)CNC(=O)[C@H](C)NC(=O)[C@H](CC(=O)O)NC(=O)[C@H](CCCCN)NC(=O)[C@@H]3CSSC[C@@H](C(=O)N[C@@H](Cc4ccc(O)cc4)C(=O)N[C@@H](CO)C(=O)O)NC(=O)[C@H](CCCNC(=N)N)NC(=O)[C@H](CSSC[C@H](NC(=O)[C@H](CCC(N)=O)NC(=O)[C@H](CCC(N)=O)NC(=O)[C@@H]4CCCN4C(=O)[C@H](CC(C)C)NC(=O)[C@H](CO)NC1=O)C(=O)N[C@@H]([C@@H](C)CC)C(=O)N[C@@H](CCCCN)C(=O)N1CCC[C@H]1C(=O)N3)NC(=O)[C@H](CCCCN)NC(=O)[C@H](CCCCN)NC(=O)[C@H](CC(N)=O)NC(=O)[C@H](CCSC)NC2=O)C(C)C [MK-1, mokatoxin-1]
cell viability (Human CD3+ T cells): no reduction of cell viability

Margatoxin
induction of twitches in ileum strips (guinea pig ileum [1]): induced twitches
ileum contractions (guinea pig ileum [2]): contractions
pressure threshold for initiation and frequency of peristaltic waves (guinea pig ileum [3]): induced a lowering of the pressure threshold

mokatoxin-2
block of Kv1.3 channels expressed in mammalian cells (Kv1.3 [4]): blocks Kv1.3 channels
# of genotype (%), Control (vector transfected cells): 5%
# of genotype, Control (vector transfected cells): 1
share after the 2nd round of panning of the library on Kv1.3 cells (Kv1.3 [5]; HEK, KTX scaffold combinatorial library, n=18): 11%
# of genotype (%), Test (Kv1.3 [5]; [6]): 90%
# of genotype, Test (Kv1.3 [5]; [6]): 18

From patent US8716437B2 (priority 2007, dated 2014)
